From patent US9434724B2, “Quinuclidines for modulating alpha 7 activity” (priority 2014, dated 2016)
Read-outs that look alike come from different tables or passages of the source.

Tests used:
CYP3A4 [1] = target: T1, CYP3A4 (Homo sapiens (Human), UniProt P08684); details: microsomes, 5 min
[2] = target: rat brain nicotinic receptor (α7 NAChR) (Rattus norvegicus (Rat), UniProt Q05941); type: binding
CYP2C19 [3] = target: T2, CYP2C19 (Homo sapiens (Human), UniProt P33261); details: microsomes
CYP1A2 = CYP1A2 (Homo sapiens (Human), UniProt P05177); assay: Cytochrome P450 inhibition in human liver microsomes, CYP1A2
[4] = Metabolic stability assay in rat liver microsomes (RLM); type: in vitro ADME; details: 1 μM
Summary of the method: (§1)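 In Protocol 1, compound was 1 μM final with NADPH at 37 °C, sampled at 0–45 min. In Protocol 2, 1.5 μM compound with 0.75 mg/mL microsomes (pre-NADPH mix) in 0.1 M potassium phosphate, 1 mM EDTA, pH 7.4 was pre-incubated 10 min, then NADPH started the reaction. Both: LC-MS/MS % remaining versus time 0, half-life from single-phase exponential fit.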

Human plasma stability = type: in vitro ADME; details: for % Remaining @ 2 h / T1/2: plasma; for % Remaining @ 2 h: 5 μM
Summary of the method: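 Protocol 1: 1 μM compound in pH 7.4 sodium-heparin human plasma at 37° C, sampled 0–120 min. Protocol 2: 5 μM in plasma at pH 7.4–8.0, 37° C, duplicates, sampled 0–120 min. Both: LC-MS/MS percent remaining versus t0; half-life from single-phase exponential decay.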

[5] = Metabolic stability assay in human liver microsomes (HLM); type: in vitro ADME; details: 1 μM
Summary of the method: as §1

CYP2C9 = CYP2C9 (Homo sapiens (Human), UniProt P11712); assay: Cytochrome P450 inhibition in human liver microsomes, CYP2C9
CYP2C19 [6] = target: T2, CYP2C19; assay: Cytochrome P450 inhibition in human liver microsomes, CYP2C19
CYP3A4 [7] = target: T1, CYP3A4; assay: Cytochrome P450 inhibition in human liver microsomes, CYP3A4
CYP2D6 = CYP2D6 (Homo sapiens (Human), UniProt P10635); assay: Cytochrome P450 inhibition in human liver microsomes, CYP2D6
[8] = read-out: 2C19 IC50, Protocol 1
[9] = read-out: 3A4 IC50 (Midazolam), substrate midazolam, Protocol 1
[10] = read-out: 3A4 IC50 (Testosterone), substrate testosterone, Protocol 1
[11] = Protocol No. 1, rat liver microsomes
[12] = Protocol No. 1, human liver microsomes

T2 sequence (P33261 whole entry): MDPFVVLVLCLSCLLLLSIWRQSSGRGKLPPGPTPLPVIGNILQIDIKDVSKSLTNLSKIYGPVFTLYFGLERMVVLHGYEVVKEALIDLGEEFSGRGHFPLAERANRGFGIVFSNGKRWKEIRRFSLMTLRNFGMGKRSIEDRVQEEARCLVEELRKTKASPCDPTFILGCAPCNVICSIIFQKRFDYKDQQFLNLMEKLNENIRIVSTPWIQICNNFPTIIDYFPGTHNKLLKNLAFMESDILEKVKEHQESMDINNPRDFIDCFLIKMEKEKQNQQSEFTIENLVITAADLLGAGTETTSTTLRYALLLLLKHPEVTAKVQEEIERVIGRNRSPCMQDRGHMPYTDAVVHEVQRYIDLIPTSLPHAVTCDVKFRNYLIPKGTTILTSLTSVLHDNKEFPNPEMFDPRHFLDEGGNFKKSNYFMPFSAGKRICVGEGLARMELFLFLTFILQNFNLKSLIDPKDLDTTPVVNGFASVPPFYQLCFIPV
Chain of CYP2C9 (P11712 whole entry): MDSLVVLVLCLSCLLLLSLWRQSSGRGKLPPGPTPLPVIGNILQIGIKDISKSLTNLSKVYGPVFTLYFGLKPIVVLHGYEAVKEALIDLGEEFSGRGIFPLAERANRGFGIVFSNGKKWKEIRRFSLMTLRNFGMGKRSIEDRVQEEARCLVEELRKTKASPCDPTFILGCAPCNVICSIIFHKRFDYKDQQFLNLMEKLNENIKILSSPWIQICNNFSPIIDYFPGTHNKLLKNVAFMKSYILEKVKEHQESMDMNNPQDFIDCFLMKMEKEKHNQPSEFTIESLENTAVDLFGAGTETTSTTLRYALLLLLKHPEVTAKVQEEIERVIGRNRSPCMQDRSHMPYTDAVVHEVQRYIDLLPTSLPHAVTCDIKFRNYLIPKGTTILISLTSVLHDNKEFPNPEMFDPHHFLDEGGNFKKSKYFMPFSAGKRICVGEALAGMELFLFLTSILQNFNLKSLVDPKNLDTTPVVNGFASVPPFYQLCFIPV
Chain of CYP2D6 (P10635 whole entry): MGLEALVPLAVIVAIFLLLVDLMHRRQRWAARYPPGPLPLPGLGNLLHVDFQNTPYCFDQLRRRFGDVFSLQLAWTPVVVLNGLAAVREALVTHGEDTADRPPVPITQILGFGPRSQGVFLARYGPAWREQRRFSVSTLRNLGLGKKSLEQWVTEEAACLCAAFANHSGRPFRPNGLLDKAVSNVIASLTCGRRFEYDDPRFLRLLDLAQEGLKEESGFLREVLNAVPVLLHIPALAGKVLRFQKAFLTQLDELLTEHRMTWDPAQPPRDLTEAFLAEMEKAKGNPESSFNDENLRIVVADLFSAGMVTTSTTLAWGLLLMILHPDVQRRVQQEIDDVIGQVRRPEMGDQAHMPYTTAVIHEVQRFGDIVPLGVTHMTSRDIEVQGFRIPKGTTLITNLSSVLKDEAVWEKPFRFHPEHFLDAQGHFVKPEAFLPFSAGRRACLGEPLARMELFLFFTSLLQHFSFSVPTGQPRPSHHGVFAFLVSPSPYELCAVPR
T1 sequence (P08684 whole entry): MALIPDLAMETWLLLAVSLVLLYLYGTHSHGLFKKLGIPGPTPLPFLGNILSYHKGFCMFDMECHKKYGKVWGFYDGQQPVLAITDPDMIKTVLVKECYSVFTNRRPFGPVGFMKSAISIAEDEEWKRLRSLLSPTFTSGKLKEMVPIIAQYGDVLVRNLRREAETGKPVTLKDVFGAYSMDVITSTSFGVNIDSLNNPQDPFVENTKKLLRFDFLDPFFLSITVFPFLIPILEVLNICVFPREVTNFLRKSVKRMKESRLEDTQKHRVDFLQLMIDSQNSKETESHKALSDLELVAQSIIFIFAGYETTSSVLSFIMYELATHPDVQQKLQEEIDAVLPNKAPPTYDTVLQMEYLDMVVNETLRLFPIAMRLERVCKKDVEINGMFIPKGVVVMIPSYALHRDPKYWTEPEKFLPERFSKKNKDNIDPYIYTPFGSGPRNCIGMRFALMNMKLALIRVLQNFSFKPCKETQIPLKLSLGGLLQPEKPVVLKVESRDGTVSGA
Chain of rat brain nicotinic receptor (α7 NAChR) (Q05941 23-502 limits assumed): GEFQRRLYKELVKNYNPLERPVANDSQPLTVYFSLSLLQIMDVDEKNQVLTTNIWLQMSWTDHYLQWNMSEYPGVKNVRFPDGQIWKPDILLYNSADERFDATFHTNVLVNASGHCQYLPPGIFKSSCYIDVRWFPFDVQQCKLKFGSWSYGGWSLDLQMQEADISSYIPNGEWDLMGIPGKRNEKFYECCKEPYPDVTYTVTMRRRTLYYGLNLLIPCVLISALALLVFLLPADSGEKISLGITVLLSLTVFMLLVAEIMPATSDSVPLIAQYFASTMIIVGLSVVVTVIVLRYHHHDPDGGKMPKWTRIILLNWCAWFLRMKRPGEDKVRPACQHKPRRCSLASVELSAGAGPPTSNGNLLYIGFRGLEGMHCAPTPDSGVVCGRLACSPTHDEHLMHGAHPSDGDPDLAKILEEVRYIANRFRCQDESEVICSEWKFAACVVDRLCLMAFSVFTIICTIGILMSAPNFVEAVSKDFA
Chain of CYP1A2 (P05177 whole entry): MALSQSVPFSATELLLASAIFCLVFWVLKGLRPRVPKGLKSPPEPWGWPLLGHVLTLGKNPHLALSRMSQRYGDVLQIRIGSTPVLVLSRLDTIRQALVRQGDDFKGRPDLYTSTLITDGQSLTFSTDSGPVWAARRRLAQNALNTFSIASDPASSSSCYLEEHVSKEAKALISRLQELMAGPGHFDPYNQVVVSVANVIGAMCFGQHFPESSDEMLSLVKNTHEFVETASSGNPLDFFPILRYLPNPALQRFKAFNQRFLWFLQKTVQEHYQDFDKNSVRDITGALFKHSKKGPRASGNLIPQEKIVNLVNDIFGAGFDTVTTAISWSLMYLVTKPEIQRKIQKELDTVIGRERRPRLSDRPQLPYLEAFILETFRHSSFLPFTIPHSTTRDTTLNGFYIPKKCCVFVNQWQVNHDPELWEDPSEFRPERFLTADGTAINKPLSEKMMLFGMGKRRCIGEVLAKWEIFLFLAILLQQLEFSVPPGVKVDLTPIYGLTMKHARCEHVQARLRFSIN

Structure (SMILES) | IC50 (CYP3A4 [1]) [µM] | IC50 [2] [µM] | Ki [2] [µM] | IC50 (CYP2C19 [3]; 45 min) [µM] | IC50 (CYP1A2; read-out: 1A2 IC50, Protocol 1) [µM] | RLM ([4]; rat, microsomes) [mL/min/kg] | % Remaining @ 2 h (Human plasma stability; human, 2 h) [%] | HLM ([5]; human, microsomes) [mL/min/kg] | IC50 (CYP2C9; read-out: 2C9 IC50, Protocol 1) [µM] | IC50 (CYP2C19 [6]; [8]) [µM] | other results
COc1ccc2[nH]cc(C(=O)OCC34CCN(CC3)CC4)c2c1Br [Compound 47, quinuclidin-4-ylmethyl 4-bromo-5-methoxy-1H-indole-3-carboxylate] | > 10 | 0.0333 | 0.0285 | > 10 | > 10 | 541.358 | 72.43 | 13.5926 |  |  | 
O=C(OCC12CCN(CC1)CC2)c1c[nH]c2cc(F)cc(Br)c12 [Compound 41, quinuclidin-4-ylmethyl 4-bromo-6-fluoro-1H-indole-3-carboxylate] | > 10 | 0.76 | 0.655 |  | > 10 | 86.59 | 120.27 | 7.55 | > 10 | > 10 | T1/2 (Human plasma stability; human): ∞
COc1cc(C)c2c(C(=O)OCC34CCN(CC3)CC4)c[nH]c2c1 [Compound 37, quinuclidin-4-ylmethyl 6-methoxy-4-methyl-1H-indole-3-carboxylate] | > 10 |  |  |  | > 10 | 33.07 | 108.49 | 20.18 | > 10 | > 10 | T1/2 (Human plasma stability; human): ∞
COc1cc(Br)c2c(C(=O)OCC34CCN(CC3)CC4)c[nH]c2c1 [Compound 48, quinuclidin-4-ylmethyl 4-bromo-6-methoxy-1H-indole-3-carboxylate] |  | 0.42 | 0.36 | > 10 | > 10 | 69.1781 | 101.03 | 7.539 |  |  | IC50 (CYP3A4 [7]; [9]): > 10 µM; IC50 (CYP3A4 [7]; [10]): > 10 µM; IC50 (CYP2D6; read-out: 2D6 IC50, Protocol 1): > 10 µM
COc1cc2[nH]cc(C(=O)OCC34CCN(CC3)CC4)c2cc1C [Compound 56, quinuclidin-4-ylmethyl 6-methoxy-5-methyl-1H-indole-3-carboxylate] | > 10 | 0.644 | 0.552 | > 10 | > 10 | 1196.24 | 77.82 | 4.868 |  |  | 
Cc1cccc2c(C(=O)OCC34CCN(CC3)CC4)c[nH]c12 [Compound 19, quinuclidin-4-ylmethyl 7-methyl-1H-indole-3-carboxylate] |  | 0.764 | 0.665 |  |  |  |  |  |  |  | IC50 (CYP2C19 [3]): > 10 µM; IC50 (CYP1A2; read-out: 1A2 IC50, Protocol 2): > 10 µM; RLM ([4]; rat, microsomes, pH 7.4): 280.991 mL/min/kg; IC50 (CYP2D6; read-out: 2D6 IC50, Protocol 2): > 10 µM; HLM ([5]; human, microsomes, pH 7.4): <13.608 mL/min/kg
Cc1cc(Br)c2c(C(=O)OCC34CCN(CC3)CC4)c[nH]c2c1 [Compound 49, quinuclidin-4-ylmethyl 4-bromo-6-methyl-1H-indole-3-carboxylate] | > 10 | 0.25 | 0.214 | > 10 | > 10 | 254.566 | 93.39 | 5.963 |  |  | 
COc1cc2c(C(=O)OCC34CCN(CC3)CC4)c[nH]c2cc1F [Compound 57, quinuclidin-4-ylmethyl 6-fluoro-5-methoxy-1H-indole-3-carboxylate] |  | 0.257 | 0.221 |  | > 10 |  |  |  | > 10 | > 10 | IC50 (CYP3A4 [7]; [9]): > 10 µM; IC50 (CYP3A4 [7]; [10]): > 10 µM; RLM [4, 11]: 153.227 mL/min/kg; % Remaining @ 2 h (Human plasma stability; Protocol No. 2, 37° C.): 76.33%; IC50 (CYP2D6; read-out: 2D6 IC50, Protocol 1): > 10 µM; HLM [5, 12]: 0 mL/min/kg
Cc1cc2c(C(=O)OCC34CCN(CC3)CC4)c[nH]c2cc1O [Compound 55, quinuclidin-4-ylmethyl 6-hydroxy-5-methyl-1H-indole-3-carboxylate] | > 10 | 0.0523 | 0.0448 | > 10 | > 10 | 45.1417 | 40.33 | 10.3473 |  |  | IC50 (CYP2D6; read-out: 2D6 IC50, Protocol 1): > 10 µM
Cc1cc(O)cc2[nH]cc(C(=O)OCC34CCN(CC3)CC4)c12 [Compound 83, quinuclidin-4-ylmethyl 6-hydroxy-4-methyl-1H-indole-3-carboxylate] | > 10 | 0.0318 | 0.0279 |  | > 10 | 14.09 | 71.57 | 2.7 | > 10 | > 10 | 
Cl.O=C(OCC12CCN(CC1)CC2)c1c[nH]c2cc(O)c(F)cc12 [Compound 59, Quinuclidin-4-ylmethyl 5-fluoro-6-hydroxy-1H-indole-3-carboxylate hydrochloride] |  | 0.0701 | 0.0602 |  | > 10 |  |  |  | > 10 | 20.9 | IC50 (CYP3A4 [7]; [9]): > 10 µM; IC50 (CYP3A4 [7]; [10]): > 10 µM; RLM [4, 11]: 24.713 mL/min/kg; % Remaining @ 2 h (Human plasma stability; Protocol No. 2, 37° C.): 53.78%; IC50 (CYP2D6; read-out: 2D6 IC50, Protocol 1): > 10 µM; HLM [5, 12]: 0 mL/min/kg
Cc1cc(C)c2c(C(=O)OCC34CCN(CC3)CC4)c[nH]c2c1 [Compound 54, quinuclidin-4-ylmethyl 4,6-dimethyl-1H-indole-3-carboxylate] | > 10 | 0.4 | 0.343 | > 10 | > 10 | 175.357 | 89.87 | 5.294 |  |  | 
COc1cc(F)c2c(C(=O)OCC34CCN(CC3)CC4)c[nH]c2c1.Cl [Compound 33, Quinuclidin-4-ylmethyl 4-fluoro-6-methoxy-1H-indole-3-carboxylate hydrochloride] |  | 0.0496 | 0.0432 |  |  |  |  |  |  |  | IC50 (CYP2C9; read-out: 2C9 IC50, Protocol 2): > 10 µM; IC50 (CYP3A4 [7]; read-out: 3A4 IC50 (Midazolam), substrate midazolam, Protocol 2): > 10 µM; IC50 (CYP1A2; read-out: 1A2 IC50, Protocol 2): > 10 µM; RLM ([4]; Protocol No. 2, rat liver microsomes): 47.7 mL/min/kg; IC50 (CYP2C19 [6]; read-out: 2C19 IC50, Protocol 2): > 10 µM; half-life at 1 μM (Human plasma stability; pH 7.4, Protocol No. 1, human plasma, 1 μM, 37° C., read-out: T1/2): 17.6 min; IC50 (CYP2D6; read-out: 2D6 IC50, Protocol 2): > 10 µM; HLM ([5]; Protocol No. 2, human liver microsomes): <13.608 mL/min/kg
Cc1cc(C#N)cc2[nH]cc(C(=O)OCC34CCN(CC3)CC4)c12 [Compound 60, quinuclidin-4-ylmethyl 6-cyano-4-methyl-1H-indole-3-carboxylate] | > 10 | 0.474 | 0.407 | > 10 | > 10 | 78.5875 | 89.46 | 15.0953 |  |  | IC50 (CYP2D6; read-out: 2D6 IC50, Protocol 1): > 10 µM
Cc1cc(Cl)cc2[nH]cc(C(=O)OCC34CCN(CC3)CC4)c12 [Compound 50, quinuclidin-4-ylmethyl 6-chloro-4-methyl-1H-indole-3-carboxylate] | > 10 | 1.29 | 1.1 |  | > 10 | 187.575 | 100.92 | 2.98 | > 10 | > 10 | T1/2 (Human plasma stability; human): ∞
O=C(OCC12CCN(CC1)CC2)c1c[nH]c2cc(Cl)cc(Br)c12 [Compound 42, quinuclidin-4-ylmethyl 4-bromo-6-chloro-1H-indole-3-carboxylate] | > 10 |  |  |  | > 10 | 55.27 | 72.21 | 12.43 | > 10 | > 10 | 
COc1cc(Cl)c2c(C(=O)OCC34CCN(CC3)CC4)c[nH]c2c1 [Compound 38, quinuclidin-4-ylmethyl 4-chloro-6-methoxy-1H-indole-3-carboxylate] | > 10 | 0.396 | 0.341 | > 10 | > 10 | 76.79 | 96.52 | 8.15 |  |  | T1/2 (Human plasma stability; human): ∞
